In brackets after ≈: the same amount, converted by molar mass. Counter-ions that a name gives are not always drawn.
Experiments:
Type in all cases: cell-based, Staphylococcus aureus
[1] = tested on: S. aureus ATCC 29213; assay: MIC, microdilution in CAMHB 24 h, with or without tomatidine/compound; settings: for MIC: Staphylococcus aureus; for MIC of Cpd against ATCC29213: compound alone
[2] = tested on: S. aureus ATCC 29213; assay: Checkerboard assay, aminoglycoside and tomatidine; settings: for MIC: Staphylococcus aureus, ATCC29213, checkerboard
Protocol: This checkerboard protocol (Eliopoulos and Moellering, 1996) was conducted by a microdilution method similar to that use for standard MICs determination. In 96 wells plates, antibiotics were loaded at a 4× concentration (where X is the maximal tested concentration) in well A1 and at a 2× concentration in the others wells of the column 1. Antibiotics were serially diluted 1:1 from the column 2 to column 10. […] Wells A12, B12, […] are positive untreated controls whereas wells […] are negative non-inoculated controls. […] The FIC index was calculated as follow (Eliopoulos and Moellering, 1996): FIC […]/MICB, where A and B are MICs of compounds A and B in combination and where MICA and MICB are the MICs of compound A alone and of compound B alone, respectively, and FICA and FICB are the FICs of compound A and of compound B, respectively.

[3] = tested on: S. aureus SCV strain NewbouldΔhemB; assay: MIC of compounds against SCV; settings: for MIC: Staphylococcus aureus, read-out: MIC of Cpd against SCV hemB; for MIC of Cpd against SCV hemB: provided in categories (strong ≦ 0.5; moderate 4-8; low > 8)
[4] = ATCC29213, read-out: MIC of Cpd against ATCC29213
[5] = gentamicin with 8 μg/ml of Cpd, provided in categories of synergy (1-2 no or mild; 4-16 moderate or strong)

Row | Compound | Fold (MIC of GEN alone/MIC of GEN with Cpd) [1, 5] | MIC of Cpd against ATCC29213 [1] | MIC of Cpd against SCV hemB [3] | further results
1 | [H]/N=C(/N)N[C@H]1[C@H](O)[C@@H](O)[C@H](O[C@@H]2O[C@@H](C)[C@](O)(C=O)[C@H]2O[C@@H]2O[C@@H](CO)[C@H](O)[C@@H](O)[C@@H]2NC)[C@@H](N/C(N)=N\[H])[C@@H]1O [Streptomycin, streptomycin] |  |  |  | Fold (−TO/+TO) ([1]; ATCC 29213, tomatidine at 8 μg/ml): 4-8 fold; MIC ([1]; ATCC29213, ATCC 29213, absence of tomatidine, read-out: MIC −TO): 4 to 8 µg/mL (≈ 6.88 to 13.8 µM); MIC ([1]; ATCC29213, ATCC 29213, presence of tomatidine at 8 μg/ml, read-out: MIC +TO): 1 µg/mL; MIC ([2]; tomatidine 0 μg/ml): 4 to 8 µg/mL; MIC ([2]; tomatidine 0.06 μg/ml): 4 µg/mL; MIC ([2]; tomatidine 0.12 μg/ml): 2 µg/mL; MIC ([2]; tomatidine 0.25 μg/ml): 1 to 2 µg/mL; MIC ([2]; tomatidine 0.5 μg/ml): 1 µg/mL; MIC ([2]; tomatidine 1 μg/ml): 1 µg/mL; MIC ([2]; tomatidine 2 μg/ml): 1 µg/mL; MIC ([2]; tomatidine 4 μg/ml): 1 µg/mL; MIC ([2]; tomatidine 8 μg/ml): 1 µg/mL; FIC index ([2]; aminoglycoside with tomatidine, tomatidine MIC considered 32 μg/ml, values overestimated): ≦0.199
2 | CC(=O)[C@H]1CC[C@H]2[C@@H]3CC[C@H]4C[C@@H](O)CC[C@]4(C)[C@H]3CC[C@]12C [Compound 28, Pregnanolone] | 1-2 fold |  |  | MIC [1, 4]: > 16 µg/mL; MIC [3]: > 8 µg/mL
3 | C[C@]12CC[C@H](O)C[C@@H]1CC[C@@H]1[C@@H]2CC[C@]2(C)[C@@H](C(=O)CN3CCCCC3)CC[C@@H]12 [Compound 48, 21-piperidinopregnanolone] | 1-2 fold |  |  | MIC [1, 4]: > 16 µg/mL; MIC [3]: > 8 µg/mL
4 | C[C@H]1CC[C@]2(NC1)O[C@H]1C[C@H]3[C@@H]4CC[C@H]5CC(=O)CC[C@]5(C)[C@H]4CC[C@]3(C)[C@H]1[C@@H]2C.Cl [Compound 25, 3-oxotomatidine hydrochloride Salt] | 4-16 fold | >16 µg/mL | ≦0.5 μg/ml | 
5 | C[C@H]1CC[C@]2(NC1)O[C@H]1C[C@H]3[C@@H]4CC[C@H]5C[C@@H](O)CC[C@]5(C)[C@H]4CC[C@]3(C)[C@H]1[C@@H]2C [Tomatidine hydrochloride salt] | 4-16 fold |  |  | MIC [1, 4]: > 16 µg/mL; MIC [3]: ≤ 0.5 µg/mL
6 | C[C@]12CC[C@H]3[C@@H](CCC4CC(O)CC[C@@]43C)[C@@H]1CC[C@@H]2C(=O)CN1CCNCC1.Cl (stereo partly shown) [Compound 50, 21-piperazinopregnanolone hydrochloride Salt] | 1-2 fold | >16 µg/mL | >8 µg/mL | 
7 | CNCC(=O)[C@H]1CC[C@H]2[C@@H]3CCC4CC(O)CC[C@]4(C)[C@H]3CC[C@]12C.Cl (stereo partly shown) [Compound 49, N-methyl-21-aminopregnanolone hydrochloride salt] | 1-2 fold | >16 µg/mL | >8 µg/mL | 
8 | C=CCOC1CCC2(C)C(CCC3C2CCC2(C)C3CC3OC4(CCC(C)CN4)C(C)C32)C1.Cl (stereo not shown) [Compound 56, O-allyltomatidine hydrochloride Salt] |  | 8 to 16 µg/mL | ≦0.5 μg/ml | Fold (MIC of GEN alone/MIC of GEN with Cpd) ([1]; gentamicin with Compound 56 used at 4 μg/ml, categories of synergy): 4-16 fold
9 | C[C@H]1CC[C@@]2(NC1)O[C@H]1C[C@H]3[C@@H]4CC[C@H]5C[C@H](O)CC[C@]5(C)[C@H]4CC[C@]3(C)[C@H]1[C@@H]2C.Cl [Compound 23, 3α-hydroxytomatidine hydrochloride Salt] | 4-16 fold | >16 µg/mL | 4 to 8 µg/mL | 
10 | C[C@H]1CC[C@@]2(O[C@H]3C[C@H]4[C@@H]5CC[C@H]6C[C@@H](O)CC[C@]6(C)[C@H]5CC[C@]4(C)[C@H]3[C@@H]2C)N(C=O)C1 [Compound 21, N-formyl tomatidine] | 1-2 fold | >16 µg/mL | >8 µg/mL | 
11 | pregnan-3β-ol-20-(aminoethyl)amine hydrochloride Salt [Compound 42] | 1-2 fold | >16 µg/mL | 4 to 8 µg/mL | 
